Test results reported in patent US20250177400A1, “METHODS OF THERAPEUTICS DEVELOPMENT OF GLIOBLASTOMA MULTIFORME BY QUINAZOLINE DERIVATIVES AND THEREOF” (priority 2023, published 2025).
Entries after “also recorded” stand apart in the source; their conditions may differ. Read-outs that look alike come from different tables or passages of the source.

Legend:
[1] = target: T1, PKCε (Homo sapiens, UniProt Q02156); assay: PKCε activity (membrane/cytosol ratio) in neuroblastoma cells; format: cell-based; conditions: SHSY5Y cells
T1 construct: host or cells: SH-SY5Y human neuroblastoma cells
T1 sequence (Q02156 1-737): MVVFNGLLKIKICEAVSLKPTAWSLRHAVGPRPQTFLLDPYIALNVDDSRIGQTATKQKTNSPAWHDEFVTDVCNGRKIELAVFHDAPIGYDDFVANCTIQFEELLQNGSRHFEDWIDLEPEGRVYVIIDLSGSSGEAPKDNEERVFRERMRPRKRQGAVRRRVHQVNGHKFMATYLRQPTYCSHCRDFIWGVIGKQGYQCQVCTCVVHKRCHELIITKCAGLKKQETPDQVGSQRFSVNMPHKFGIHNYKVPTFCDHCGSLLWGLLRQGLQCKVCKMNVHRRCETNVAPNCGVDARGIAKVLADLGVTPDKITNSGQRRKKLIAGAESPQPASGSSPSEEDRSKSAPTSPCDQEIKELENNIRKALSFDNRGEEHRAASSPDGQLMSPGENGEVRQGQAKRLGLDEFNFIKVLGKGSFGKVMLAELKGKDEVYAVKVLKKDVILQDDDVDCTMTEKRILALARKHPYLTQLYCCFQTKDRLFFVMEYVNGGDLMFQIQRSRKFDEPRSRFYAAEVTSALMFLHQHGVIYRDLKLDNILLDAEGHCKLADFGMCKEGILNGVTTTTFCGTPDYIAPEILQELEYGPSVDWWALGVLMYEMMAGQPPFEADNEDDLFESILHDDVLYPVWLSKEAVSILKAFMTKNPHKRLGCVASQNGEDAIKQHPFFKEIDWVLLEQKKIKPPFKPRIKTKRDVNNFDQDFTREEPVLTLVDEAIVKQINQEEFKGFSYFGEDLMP
Procedure: FIG. 7 depicts how novel quinazoline derivative decreases oncogenic PKCε activity in neuroblastoma cells. C=concentration of PKCε in cytosol fraction, and M=concentration of PKCε in membrane fraction of cells. PKCε activity was measured as the ratio of the concentration in the membrane and cytosol fraction.
Novel quinazoline derivative decreases oncogenic PKCepsilon (PKCε) activity in neuroblastoma cells (FIG. 7). We tested whether novel quinazoline derivatives can decrease oncogenic PKCε activity. […] Oncogenic PKCε is a survival kinase for GBM cells (Okhrimentko et al., 2005).
GBM cell line T98-G (ATCC-CRL-1690) was obtained and authenticated by the American Type Culture Collection (Cat #30-2003; ATCC, Manassas, VA). Cells were cultured and maintained in low glucose Dulbecco's Modified Eagle Medium (DMEM) (Thermo Fisher Scientific) supplemented with 10% fetal bovine serum (FBS, Thermo Fisher Scientific) at 37° C. in a 5% CO2 humidified atmosphere and passed in less than 6 months. Human neuroblastoma cells. […] The condition of the cultured cells was monitored with an inverted cell culture microscope (Westover Digital AMID Model 2000, Westover Scientific, Bothell, WA), controlled by a computer, and images were captured with image acquisition software (Micron 2.0.0, Westover Scientific). […]

[2] = tested on: human normal primary skin fibroblasts; assay: Toxicity to cultured normal primary skin fibroblasts; format: cell-based
Procedure: FIG. 8 depicts the non-toxicity of Compound 1.
Insignificant toxicity was found for the quinazoline derivative (Compound 1): One quinazoline derivative (Compound 1) was non-toxic to cultured normal primary skin fibroblasts isolated from healthy individuals (FIG. 8). After three days of continuous treatment by 100 μM Compound 1, there was no cell death.
(§1) GBM cell line T98-G (ATCC-CRL-1690) was obtained and authenticated by the American Type Culture Collection (Cat #30-2003; ATCC, Manassas, VA). Cells were cultured and maintained in low glucose Dulbecco's Modified Eagle Medium (DMEM) (Thermo Fisher Scientific) supplemented with 10% fetal bovine serum (FBS, Thermo Fisher Scientific) at 37° C. in a 5% CO2 humidified atmosphere and passed in less than 6 months. Human neuroblastoma cells. Human SH-SY5Y neuroblastoma cells (Sigma-Aldrich) were cultured in 45% F12K, 45% Modified Eagle Medium (MEM), supplemented with 10% FBS in tissue culture incubator (37° C., 5% CO2, 90% humidity). Primary skin fibroblasts. […] The condition of the cultured cells was monitored with an inverted cell culture microscope (Westover Digital AMID Model 2000, Westover Scientific, Bothell, WA), controlled by a computer, and images were captured with image acquisition software (Micron 2.0.0, Westover Scientific).

[3] = tested on: integrin β1 (CD29); assay: Western blot of integrin β1 levels in GBM cells; format: cell-based, human; conditions: normalized with β-tubulin, similar concentrations
Text: FIG. 6 depicts a novel quinazoline derivative (Compound 1:-Pyridin-2-yl -5,6-dihydro-benzo[4,5]imidazo[1,2-c]quinazoline) that decreases glioblastoma cell invasion by decreasing integrin β1 (CD29) levels. Intergrin β1 band decreased in Western blot analyses both in normal culture (A), and serum-free condition (B) by the treatment of compound 1. Propentofylline treatment produces reverse effects (A). Relative expression levels of integrin β1 is normalized with β-tubulin as a loading control in Western blot analyses. […] Standard Error of Mean (SEM) is calculated from three independent measurements.
Integrins have an important role to play in cell invasion in tumorigenic environments. […] We also compared the effectiveness of reducing β1 integrin level with propentofylline in the same concentration. […] Deletion of β1 integrin reduced tumorigenesis in in-vivo xenograft tumor growth animal model (Hou et al., 2016).
Reagents and antibodies: Propentofylline (molecular weight 306.366; [1-(5O-oxohexyl)-3-methyl-7-propylxanthine) was purchased from Sigma-Aldrich (St. Louis). Propentofylline and synthetic quinazoline derivatives were dissolved in DMSO (30-60 mM, depending on solubility). Aliquots were stored at −20 C. Stock solutions were dissolved in a culture medium at different concentrations just before each experiment. Rabbit monoclonal anti-Integrin beta 1 [CD29] antibody (Cat #04-1109) was purchased from Millipore (Temecula, CA). Anti-tubulin III antibody (Cat #79-720) was purchased from ProSci (Poway, CA). Antibody for PKCε (C-15) (Santa Cruz Biotechnology, Santa Cruz, CA; Cat No: sc-214) was used to detect PKCε and has been recommended for detection of PKCε of human origin by western blotting and immunofluorescence analysis by the manufacturer. Quinazoline derivatives were synthesized in the laboratory.

[4] = tested on: Glioblastoma multiforme (GBM) cells (T98-G); assay: Induction of apoptosis in cultured glioblastoma multiforme cells (microscopy); format: cell-based, human; conditions: for induction of apoptosis in GBM cells: T98-G cells, 50 and 100 μM, three days, compared to vehicle control
Procedure: FIG. 2 depicts a novel quinazoline derivative (Compound 1:6-Pyridin-2-yl -5,6-dihydro-benzo[4,5]imidazo[1,2-c]quinazoline) that induces apoptosis in Glioblastoma (GBM) cells. Cells were treated with different concentrations of Compound 1 (0.1, 1, 10, 50, 100μ) or vehicle (control).
(§2) Glioblastoma multiforme (GBM) cells (T98-G) were cultured in 6 wells for ˜90% confluent. Cells were treated with different concentrations of Compound 1 (0.1, 1, 10, 50, 100μ) or vehicle (control). […] Cell viability was tested by trypan blue exclusion assay.
GBM cell line T98-G (ATCC-CRL-1690) was obtained and authenticated by the American Type Culture Collection (Cat #30-2003; ATCC, Manassas, VA). Cells were cultured and maintained in low glucose Dulbecco's Modified Eagle Medium (DMEM) (Thermo Fisher Scientific) supplemented with 10% fetal bovine serum (FBS, Thermo Fisher Scientific) at 37° C. in a 5% CO2 humidified atmosphere and passed in less than 6 months. Human neuroblastoma cells. Human SH-SY5Y neuroblastoma cells (Sigma-Aldrich) were cultured in 45% F12K, 45% Modified Eagle Medium (MEM), supplemented with 10% FBS in tissue culture incubator (37° C., 5% CO2, 90% humidity). Primary skin fibroblasts. Primary skin fibroblasts were obtained from the Coriell Institute for Medical Research (Camden, NJ; Cat #AG09555; the Aging Cell Culture Repository of the National Institute on Aging) and maintained in DMEM with low glucose (Invitrogen, Grand Island, NY) supplemented with 10% FBS in 6-well culture plates (37° C., 5% CO2, 90% humidity) until reaching 90-100% confluence. In addition, cells were treated with either vehicle, 50, and 100 μM quinazoline derivatives and propentofylline. The condition of the cultured cells was monitored with an inverted cell culture microscope (Westover Digital AMID Model 2000, Westover Scientific, Bothell, WA), controlled by a computer, and images were captured with image acquisition software (Micron 2.0.0, Westover Scientific).

[5] = tested on: Glioblastoma multiforme (GBM) cells (T98-G); assay: Cell viability by trypan blue exclusion assay; format: cell-based, human; conditions: 50 and 100 μM, 3 days
Procedure: FIG. 3 depicts concentration dependence cell viability of human glioblastoma multiforme (GBM) cells by novel quinazoline derivative (Compound 1: 6-Pyridin-2-yl-5,6-dihydro-benzo[4,5]imidazo[1,2-c]quinazoline).
as §2, §1

[6] = tested on: GBM cells; assay: Model tumor spheroid assay: GBM cell invasion in three-dimensional Matrigel matrix; format: cell-based, human; conditions: 3D Matrigel matrix; for invasive cells in multicellular spheroids: 50 μM
Text: FIG. 5 depicts the Human glioblastoma multiforme (GBM) cell invasion in a three-dimensional Matrigel basement membrane. Model Tumor Spheroid assay: GBM cells form a spheroid tumor-like biological entity in three-dimensional space. Proliferation and invasion of GBM in 3-dimensional Matrigel matrix in 5 days (A) and 12 days (B). Arrows indicate invasive cells in model tumor spheroids. The proliferation and invasion of GBM in a three-dimensional Matrigel matrix have been studied for days. […] Arrows indicate invasive cells.
GBM cells were incubated in a previously prepared 3-dimensional Matrigel matrix. Multicellular spheroids were formed after three days of incubation. The mechanical properties of cell invasion of patient-derived primary glioblastoma cells have been studied recently in 3-D matrigel matric (Grundy et al., 2016). Cellular invasiveness was monitored in multicellular spheroids of GBM embedded in 3D matrigel matric (FIG. 5).

[7] = tested on: GBM cells; conditions: 2012, cited from earlier work; for GBM cell invasion and survival: Dhruv et al., 2016, Jacob et al.
[8] = tested on: Glioblastoma multiforme (GBM); conditions: cited from earlier work

c1ccc(C2Nc3ccccc3-c3nc4ccccc4n32)nc1 (centres unmarked) [Compound 1, 6-Pyridin-2-yl-5,6-dihydro-benzo[4,5]imidazo[1,2-c]quinazoline]
PKCε activity (ratio of concentration in membrane and cytosol fraction) [1]: significantly decreased the PKCε activity | cell death of primary skin fibroblasts ([2]; 100 μM, three days of continuous treatment): no noticeable cell death | toxicity to primary human skin fibroblasts ([2]; cultured normal primary skin fibroblasts from healthy individuals): non-toxic | integrin β1 expression level [3]: significantly decreases integrin β1 expression level; also recorded: decreasing β1 integrin (CD29) levels; also recorded: significantly reduced expression levels of β1-Integrin | potency for inducing apoptosis / inhibiting GBM survival compared with Propentofylline ([4]; GBM cells, FIG. 4): more potent for inhibiting GBM survival than Propentofylline; also recorded: more potent than Propentofylline to induce apoptosis | induction of apoptosis in GBM cells [4]: induced significant apoptosis; also recorded: induce apoptosis; also recorded: caused significant apoptosis | cell viability (trypan blue exclusion) [5]: Cell viability was reduced | invasive cells in multicellular spheroids [6]: no invasive cells | potency for reducing tumor size and cell invasion compared with Propentofylline ([6]; 5th day): more potent than Propentofylline in terms of reducing tumor size and cell invasion; also recorded: more potent inhibitor of GBM cell invasion

c1c[nH]c(-c2nc3ccccc3c3nc4ccccc4n23)c1 [Compound 7, 6-(1H-Pyrrol-2-yl)-benzo[4,5]imidazo[1,2-c]quinazoline]
induction of apoptosis in GBM cells [4]: caused significant apoptosis

CCCn1cnc2c1c(=O)n(CCCCC(C)=O)c(=O)n2C [Propentofylline, 1-(5O-oxohexyl)-3-methyl-7-propylxanthine]
integrin β1 expression level [3]: not able to reduce β1 integrin level | integrin β1 expression level ([3]; listed as propentofylline): significantly increases integrin β1 expression levels; also recorded: increased expression levels of β1-Integrin | induction of apoptosis in GBM cells [4]: did not induce apoptosis | GBM cell invasion and survival [7]: decreasing GBM cell invasion and survival | GBM cell invasion and survival ([7]; listed as propentofylline): decreased GBM cell invasion; also recorded: inhibits GBM survival | induction of apoptosis in GBM cells ([7]; Jacobs et al.): ineffective inducing apoptosis | invasive cells in multicellular spheroids [6]: Invasive cells were sprouting outside of the spheroid

Cn1nnc2c(C(N)=O)ncn2c1=O [TMZ, temozolomide]
common side effects ([8]; patients): bone marrow suppression, genotoxic, and teratogenic

Bevacizumab: FDA-approved immunotherapeutic agent; therapeutic antibody (Genentech)
progression-free survival at 6 months ([8]; GBM patients, % of cases): 36% | overall survival ([8]; GBM patients): 9.3 months | gastrointestinal perforation ([8]; human, in vivo): 1.5-5.4% | hypertension ([8]; human, in vivo): 5.5-11.4% | proteinuria ([8]; human, in vivo): 2.7-11.4% | thromboembolic events ([8]; human, in vivo): 3.2-11.9% | wound healing complications ([8]; human, in vivo): 0.8-3.3% | patients who developed therapeutic resistance ([8]; phase II clinical trial (Vredenburgh et al., 2007)): 40%
